Reference: the NIST ThermoML archive (doi:10.1021/je060107n)
± gives the expanded uncertainty stated by the source.

Experiment: mn = molality of the nth substance listed, in mol/kg
Settings: 101 kPa, Liquid; for mass density: Pycnometric method; for viscosity: Capillary tube (Ostwald / Ubbelohde) method; for speed of sound: Linear variable-path acoustic interferometer

`O=[N+]([O-])[O-].O=[N+]([O-])[O-].[Mg+2]` [magnesium nitrate] + O showed a mass density (302.1 K, m1 = 3.096) of 1269.1 ± 0.9 kg/m3, a mass density (302.1 K, m1 = 3.501) of 1297.2 ± 0.9 kg/m3 and a mass density (302.25 K, m1 = 2.131) of 1194.8 ± 0.8 kg/m3. For the same molecule, the mass density (302.25 K, m1 = 3.17) was 1278.7 ± 1.5 kg/m3, the mass density (302.3 K, m1 = 4.728) was 1376.3 ± 1 kg/m3 and the mass density (302.4 K, m1 = 4.285) was 1347.6 ± 0.9 kg/m3. For the same molecule, the mass density (302.55 K, m1 = 0.3405) was 1030.8 ± 0.9 kg/m3, the mass density (302.55 K, m1 = 2.493) was 1222.7 ± 0.8 kg/m3 and the mass density (302.6 K, m1 = 1.827) was 1169.5 ± 0.8 kg/m3. The mass density (302.6 K, m1 = 4.883) was 1382.9 ± 0.9 kg/m3, the mass density (302.95 K, m1 = 4.039) was 1330.8 ± 0.9 kg/m3 and the mass density (302.95 K, m1 = 5.134) was 1399.9 ± 1 kg/m3. It also gave a mass density (303.05 K, m1 = 0.0145) of 996.95 ± 0.64 kg/m3, a mass density (303.1 K, m1 = 1.694) of 1156.4 ± 0.7 kg/m3 and a mass density (303.1 K, m1 = 2.584) of 1230.7 ± 0.8 kg/m3. The mass density (303.1 K, m1 = 2.793) was 1246.1 ± 0.9 kg/m3, the viscosity (303.15 K, m1 = 0.0145) was 0.8115 ± 0.011 mPa·s and the viscosity (303.15 K, m1 = 0.0528) was 0.825 ± 0.011 mPa·s. For the same molecule, the viscosity (303.15 K, m1 = 0.2491) was 0.8716 ± 0.012 mPa·s, the viscosity (303.15 K, m1 = 0.5931) was 0.9679 ± 0.013 mPa·s and the viscosity (303.15 K, m1 = 0.9898) was 1.112 ± 0.015 mPa·s. For the same molecule, the viscosity (303.15 K, m1 = 1.262) was 1.228 ± 0.016 mPa·s, the viscosity (303.15 K, m1 = 1.827) was 1.493 ± 0.02 mPa·s and the viscosity (303.15 K, m1 = 2.131) was 1.654 ± 0.022 mPa·s. It also gave a viscosity (303.15 K, m1 = 2.584) of 1.969 ± 0.026 mPa·s, a viscosity (303.15 K, m1 = 3.096) of 2.38 ± 0.031 mPa·s and a viscosity (303.15 K, m1 = 3.329) of 2.611 ± 0.034 mPa·s. It also gave a viscosity (303.15 K, m1 = 3.704) of 2.998 ± 0.039 mPa·s, a viscosity (303.15 K, m1 = 4.039) of 3.462 ± 0.046 mPa·s and a viscosity (303.15 K, m1 = 4.728) of 4.73 ± 0.062 mPa·s. The viscosity (303.15 K, m1 = 4.907) was 5.225 ± 0.069 mPa·s, the viscosity (303.15 K, m1 = 5.282) was 6.141 ± 0.081 mPa·s and the speed of sound (303.15 K, m1 = 0.0145) was 1509.5 ± 1.9 m/s. The speed of sound (303.15 K, m1 = 0.0528) was 1511.9 ± 1.9 m/s, the speed of sound (303.15 K, m1 = 0.2491) was 1526.5 ± 1.9 m/s and the speed of sound (303.15 K, m1 = 0.3405) was 1529.9 ± 1.9 m/s. For the same molecule, the speed of sound (303.15 K, m1 = 0.6173) was 1550.7 ± 1.9 m/s, the speed of sound (303.15 K, m1 = 0.896) was 1571.2 ± 1.9 m/s and the speed of sound (303.15 K, m1 = 0.9898) was 1578.7 ± 1.9 m/s. The speed of sound (303.15 K, m1 = 1.262) was 1596.4 ± 1.9 m/s, the speed of sound (303.15 K, m1 = 1.525) was 1617 ± 1.9 m/s and the speed of sound (303.15 K, m1 = 1.827) was 1641 ± 1.9 m/s. It also gave a speed of sound (303.15 K, m1 = 2.131) of 1663.8 ± 2 m/s, a speed of sound (303.15 K, m1 = 2.493) of 1686.8 ± 2 m/s and a speed of sound (303.15 K, m1 = 2.793) of 1708.1 ± 2 m/s. For the same molecule, the speed of sound (303.15 K, m1 = 3.118) was 1729.1 ± 2 m/s, the speed of sound (303.15 K, m1 = 3.17) was 1736.9 ± 2 m/s and the speed of sound (303.15 K, m1 = 3.501) was 1753.9 ± 2 m/s. The speed of sound (303.15 K, m1 = 3.757) was 1772.5 ± 2 m/s, the speed of sound (303.15 K, m1 = 4.051) was 1783.6 ± 2 m/s and the speed of sound (303.15 K, m1 = 4.285) was 1797.4 ± 2.1 m/s. For the same molecule, the speed of sound (303.15 K, m1 = 4.403) was 1804.5 ± 2.1 m/s, the speed of sound (303.15 K, m1 = 4.883) was 1830.6 ± 2.1 m/s and the speed of sound (303.15 K, m1 = 5.134) was 1842.9 ± 2.1 m/s. For the same molecule, the mass density (303.15 K, m1 = 4.97) was 1388.7 ± 0.9 kg/m3, the mass density (303.25 K, m1 = 0.0528) was 1001.1 ± 0.7 kg/m3 and the mass density (303.3 K, m1 = 3.704) was 1309.8 ± 0.9 kg/m3. It also gave a mass density (303.5 K, m1 = 1.525) of 1141.2 ± 0.8 kg/m3, a mass density (303.5 K, m1 = 4.403) of 1353.9 ± 0.9 kg/m3 and a mass density (303.55 K, m1 = 1.262) of 1118.2 ± 0.7 kg/m3. It also gave a mass density (303.85 K, m1 = 0.5931) of 1055.1 ± 0.8 kg/m3, a mass density (303.9 K, m1 = 0.896) of 1084.7 ± 0.7 kg/m3 and a mass density (304.15 K, m1 = 0.6173) of 1057.7 ± 0.7 kg/m3. It also gave a mass density (304.25 K, m1 = 3.096) of 1267.7 ± 0.9 kg/m3, a mass density (304.35 K, m1 = 3.501) of 1295.8 ± 0.9 kg/m3 and a mass density (304.35 K, m1 = 3.757) of 1312.3 ± 0.9 kg/m3. It also gave a mass density (304.55 K, m1 = 2.131) of 1193.6 ± 0.8 kg/m3, a mass density (304.55 K, m1 = 3.118) of 1268.5 ± 0.8 kg/m3 and a mass density (304.55 K, m1 = 4.285) of 1346.2 ± 0.9 kg/m3. It also gave a mass density (304.55 K, m1 = 4.728) of 1374.9 ± 1 kg/m3, a mass density (304.8 K, m1 = 4.883) of 1381.4 ± 1 kg/m3 and a mass density (305 K, m1 = 0.2491) of 1021.1 ± 0.7 kg/m3. The mass density (305 K, m1 = 1.827) was 1168.3 ± 0.8 kg/m3, the mass density (305.05 K, m1 = 2.493) was 1221.3 ± 0.8 kg/m3 and the mass density (305.2 K, m1 = 4.051) was 1329.4 ± 0.9 kg/m3. The mass density (305.25 K, m1 = 4.039) was 1329.3 ± 0.9 kg/m3, the mass density (305.3 K, m1 = 1.694) was 1155.3 ± 0.8 kg/m3 and the mass density (305.35 K, m1 = 2.584) was 1229.4 ± 0.8 kg/m3. It also gave a mass density (305.5 K, m1 = 2.793) of 1244.7 ± 0.9 kg/m3, a mass density (305.55 K, m1 = 3.704) of 1308.4 ± 0.9 kg/m3 and a mass density (305.8 K, m1 = 0.9898) of 1093 ± 0.8 kg/m3. For the same molecule, the mass density (305.85 K, m1 = 0.3405) was 1029.6 ± 0.7 kg/m3 and the mass density (305.95 K, m1 = 1.525) was 1139.9 ± 0.8 kg/m3.
